According to patent US20190008797A1, “ESTROGEN RECEPTOR ALPHA COLIGANDS, AND METHODS OF USE THEREOF” (priority 2016, published 2019):
pIC50: −log10 of the molar value. Entries after “also recorded” stand apart in the source; their conditions may differ. Read-outs that look alike come from different tables or passages of the source.

Legend:
[1] = system: mouse uterus; assay: Uterine weight in intact female mice; type: in vivo; details: intact C57BL/6 female mice, daily intraperitoneal injection
Method: (§1) 8 week old C57b1/6J female ovariectomized or intact mice were purchased from Jackson Laboratories, Sacramento, Calif. Mice were housed and maintained according to OLAC standard procedures in the NAF facility at UC Berkeley, Calif. All mice were fed a soy-free chow diet 2916.15 (Harlan Laboratories, Livermore, Calif.) starting one week before osmotic pump implantation or 2′, 3′, 4′-THC injection. Pumps Model 2006 were purchased from Alzet and filled with vehicle, 1 μg […], 2 mg of 2′, 3′, 4′-THC or the combination of 2′, 3′, 4′-THC and estradiol. All drugs were dissolved in sterile vehicle consisting of 50% dimethylsulfoxide (DMSO), 25% ETOH and 25% deionized water. Pumps were handled with sterile gloves and filled using a 27 gauge filling tube and 1 mL syringe. All pumps were placed in 1X PBS in 15 mL sterile conical tubes and incubated overnight at 37° . Pumps were surgically implanted into 8 week old C57b1/6J female ovariectomized mice (Jackson Laboratory, Sacramento, Calif.) posterior to the scapula and left for a duration of 4 weeks. Intact mice were injected intraperitoneal with 2′, 3′, 4′-THC every day for 3 weeks. Mice were weighed once a week for the duration of the experiment. The intraperitoneal gonadal fat was removed and weighed. Uterine tissue was collected, fluid drained and then weighed.
FIGS. 5a-5h. 2′, 3′, 4′-THC acts as antagonist in the mouse uterus. […]

[2] = system: MCF-7 cells; assay: Flow cytometry of cellular DNA content in MCF-7 cells; type: cell-based, human; details: for pIC50: Homo sapiens, MCF7, 24 h
Method: The cells were then washed with PBS, detached with trypsin and collected by centrifugation. The cell pellets were washed with cold PBS followed by centrifuge at room temperature and re-suspended in 500 μl PBS containing […] propidium iodide, 0.1% of Triton™ X-100, 0.1% of sodium citrate, and 10 μg/ml of RNase. Samples were then run on Cytomics™ FC-500 (Beckman Coulter) in the cell cytometry facility at UC Berkeley and data was analyzed using FlowJo 7.6.5.

[3] = system: U2OS-ERα cells; assay: KRT19 mRNA real-time PCR in U2OS-ERα cells; type: cell-based, human
Method: (§2) (FIG. 1a) Chemical structure of 2′, 3′, 4′-THC. (FIG. 1b) U2OS cells cotransfected with ERE tk-luciferase and ERα (left panel) or ERβ (right panel). After transfection the cells were treated for 24 hours with 10 nM estradiol and 5 μM 2′, 3′, 4′-THC alone or in combination. Cells were lysed and luciferase activity was measured. RLU is relative light units. Error bars are the Mean±SEM. **P≤0.01. […] The total cellular RNA was extracted and real-time PCR for KRT19 mRNA was performed as described in Materials and Methods. […] Error bars are ±SEM. *P≤0.05, **** P≤0.0001.
FIGS. 3a-3d. […] Error bars are ±SEM.

[4] = system: U2OS-ERα cells; assay: Real-time PCR of unique genes FGR, KCNK6, KRT73 in U2OS-ERα cells; type: cell-based, human; details: E2 in combination with 5 μM 2′,3′,4′-THC, 24 hrs
Method: Expression was assessed by up regulation or down regulation of 3-fold or more and a P-value≤0.05. […] Error bars are ±SEM.
(§3) (FIGS. 6a, 6b) Gene expression of (FIG. 6a) KRT73 and (FIG. 6b) NKG2E in U2OS-ERα cells treated with 10 nM estradiol, 5 μM 2′, 3′, 4′-THC, 1μM ICI alone or in combination for 24 hours. […] Error bars are ±SEM. […] After transfection, luciferase activities were measured as described in the Methods. RLU is relative light units and the data shown are mean ±SEM. (FIG. 6c). […] After transfection, luciferase activities were measured as described in the Methods. RLU is relative light units and the data shown are mean ±SEM (FIG. 6d).

[5] = target: ERα (Homo sapiens, UniProt P03372); assay: ChIP of ERα recruitment in MCF-7 cells; type: cell-based; parameters: expressed in transfected cells; details: 5 μM + 10 nM E2, 1 hour
[6] = target: T1, ERα LBD (Homo sapiens, UniProt P03372); type: binding; details: 5 μM 2′,3′,4′-THC alone
T1 construct: Purified ERα LBD containing amino acids 315-545 used by Brzozowski et al; histidine-tag; purchased GenScript
T1 sequence (P03372 315-545): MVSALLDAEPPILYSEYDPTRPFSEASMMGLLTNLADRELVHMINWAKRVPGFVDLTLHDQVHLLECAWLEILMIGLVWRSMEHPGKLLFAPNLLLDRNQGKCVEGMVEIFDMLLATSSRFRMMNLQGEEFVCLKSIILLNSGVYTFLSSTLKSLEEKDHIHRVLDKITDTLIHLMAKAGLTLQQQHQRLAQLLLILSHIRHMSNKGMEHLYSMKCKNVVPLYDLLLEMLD

[7] = system: U2OS-ERα cells; assay: NKG2E mRNA real-time PCR in U2OS-ERα cells; type: cell-based, human
Method: as §2, §3

[8] = system: mouse uterus; assay: Ovariectomized (OVX) mouse model, osmotic pump; type: in vivo; details: OVX mice
Method: as §1
Tissues were dissected and immediately frozen in liquid nitrogen. Before RNA isolation, tissues were homogenized in PureZOL™ using the MP FastPrep™-24 for 40 seconds.
Uterine Tissue Slide Preparation Uterine tissue was removed and trimmed of excess adipose tissue. Tissues were fixed in formalin for 24 hours then transferred to 50% ETOH for 1 hour followed by 70% ethanol (ETOH) for another hour. After fixation tissues were sent to Histopathology Reference Laboratory, Hercules Calif. where they were paraffin embedded, sectioned and stained with hematoxylin and eosin for morphological exam
FIGS. 5a-5h. 2′, 3′, 4′-THC acts as antagonist in the mouse uterus. Uterine weights of intact (FIG. 5a) and OVX (FIG. 5b) mice. […] (FIG. 5h) Total body weight of OVX mice after 4 week treatment. Error bars are ±SEM.

[9] = system: c-MYC; assay: c-MYC mRNA (real-time PCR) and protein (Western blot) in MCF-7 cells; details: greater than tamoxifen
[10] = 10 nM E2, 5 μM 2′,3′,4′-THC, 1 μM tamoxifen or raloxifene, 24 hours
[11] = in combination with 10 nM E2, 24 hours

ERα, sequence (P03372 whole entry, the tested form may be a part): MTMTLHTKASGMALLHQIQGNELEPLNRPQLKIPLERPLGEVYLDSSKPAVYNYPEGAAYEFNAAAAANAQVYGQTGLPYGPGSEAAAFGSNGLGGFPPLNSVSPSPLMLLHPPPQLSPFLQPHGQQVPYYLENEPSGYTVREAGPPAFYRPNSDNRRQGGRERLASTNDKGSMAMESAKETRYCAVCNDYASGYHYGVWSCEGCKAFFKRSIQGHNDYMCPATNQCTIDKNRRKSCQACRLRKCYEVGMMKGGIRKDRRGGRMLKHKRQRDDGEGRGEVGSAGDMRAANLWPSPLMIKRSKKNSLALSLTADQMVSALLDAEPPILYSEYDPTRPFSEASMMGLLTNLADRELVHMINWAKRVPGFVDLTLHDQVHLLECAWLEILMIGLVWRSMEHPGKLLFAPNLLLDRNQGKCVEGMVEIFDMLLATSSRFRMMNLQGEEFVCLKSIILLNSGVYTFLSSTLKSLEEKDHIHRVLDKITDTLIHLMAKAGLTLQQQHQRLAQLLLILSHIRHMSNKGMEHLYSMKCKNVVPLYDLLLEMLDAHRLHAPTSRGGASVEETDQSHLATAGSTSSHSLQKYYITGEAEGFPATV

SMILES: O=C(/C=C/c1ccccc1)c1ccc(O)c(O)c1O [2′, 3′, 4′-THC, 2′, 3′, 4′-trihydroxychalcone]
- reduction of uterine growth compared to the control mice [1]: 50%
- effect on E2-treated cells by DNA content / cell cycle ([2]; 24 hours): anti-proliferative action; also recorded: G1 cell cycle arrest
- pIC50 ([2]; read-out: IC50 for inhibition, G1 phase (cellular DNA content)): 5.54
- pIC50 ([2]; read-out: IC50 for inhibition, S-phase (cellular DNA content)): 5.59
- KRT19 gene expression, compound alone [3, 10]: no effect
- activation of the KRT19 gene in the presence of E2 ([3]; 1 and 5 μM 2′,3′,4′-THC, 24 h): synergistic activation
- effect on E2-induced KRT19 expression [3, 11]: synergistic activation
- E2 dose at which FGR expression was induced [4]: 0.1 nM
- E2 dose at which KCNK6 expression was induced [4]: 1 nM
- E2 dose at which KRT73 expression was induced [4]: 1 nM
- effect on E2 induced ERα binding to the c-MYC enhancer [5]: inhibited
- effect on recruitment of ERα to the KRT19 ERE [5]: did not have a significant effect
- melting temperature of ERα LBD [6]: no effect
- NKG2E gene expression, compound alone [7, 10]: no effect
- synergy in combination with tamoxifen or raloxifene ([7]; 5 μM + 1 μM tamoxifen or raloxifene): No synergy
- effect on E2-induced NKG2E gene expression [7, 11]: synergistic activation
- H & E staining of uterus, effect on E2 response ([8]; combination with E2, 4 weeks): inhibited the proliferative response
- effect on E2-induced increase in uterine weight ([8]; combination with E2, 4 weeks): blocked
- effect on E2-induced increased uterine mRNA for LCN2 ([8]; combination with E2, 4 weeks): antagonist effect
- effect on E2-induced increased uterine mRNA for LTF ([8]; combination with E2, 4 weeks): antagonist effect
- effect on E2-induced increased uterine mRNA for SA100A9 ([8]; combination with E2, 4 weeks): antagonist effect
- effect on E2 decrease of gonadal adipose tissue fat ([8]; combination with E2, 4 weeks): not blocked
- uterine size / uterine weight, compound alone ([8]; osmotic pump, 4 weeks): did not increase
- effect on E2-stimulation of c-MYC mRNA ([9]; 5 μM + 10 nM E2, 4 hours): inhibited
- effect on E2-stimulation of c-MYC protein levels ([9]; increasing doses + 10 nM E2, 1 hour): inhibited
